Patent EP1534716B1, “HETEROBICYCLIC PYRAZOLE DERIVATIVES AS KINASE INHIBITORS” (priority 2002, dated 2004)

Columns and labels:
Format in all cases: biochemical
[1] = target: cdk2/Cyclin A (Homo sapiens, UniProt P24941); test: Inhibition assay of cdk2/Cyclin A activity (SPA); details: 10 µM ATP, 60 min at room temperature
Protocol: (§1) The inhibiting activity of putative cdk/cyclin inhibitors and the potency of selected compounds is determined through a method of assay based on the use of the SPA technology (Amersham Pharmacia Biotech).
(§2) The assay consists of the transfer of radioactivity labelled phosphate moiety by the kinase to a biotinylated substrate. The resulting 33P-labelled biotinylated product is allowed to bind to streptavidin-coated SPA beads (biotin capacity 130 pmol/mg), and light emitted was measured in a scintillation counter.
Inhibition assay of cdk2/Cyclin A activity
Kinase reaction: 4 µM in house biotinylated histone H1 (Sigma # H-5505) substrate, 10 µM ATP (0.1 microCi P^33γ-ATP), 1.1 nM Cyclin A/CDK2 complex, inhibitor in a final volume of 30 µl buffer (TRIS HCl 10 mM pH 7.5, MgCl2 10 mM, DTT 7.5 mM + 0.2 mg/ml BSA) were added to each well of a 96 U bottom. After incubation for 60 min at room temperature, the reaction was stopped by addition of 100 µl PBS buffer containing 32 mM EDTA, 500 µM cold ATP, 0.1% Triton X100 and 10mg/ml streptavidin coated SPA beads. After 20 min incubation, 110 µL of suspension were withdrawn and transferred into 96-well OPTIPLATEs containing 100 µl of 5M CsCl. After 4 hours, the plates were read for 2 min in a Packard TOP-Count radioactivity reader.
(§3) Experimental data were analyzed by the computer program GraphPad Prizm using the four parameter logistic equation: [formula] where x is the logarithm of the inhibitor concentration, y is the response; y starts at bottom and goes to top with a sigmoid shape.

[2] = target: T1, Aurora-2 (Homo sapiens, UniProt O14965); test: Inhibition assay of Aurora-2 activity (SPA); details: 10 µM ATP, 60 minutes at room temperature
T1 sequence (O14965 1-403): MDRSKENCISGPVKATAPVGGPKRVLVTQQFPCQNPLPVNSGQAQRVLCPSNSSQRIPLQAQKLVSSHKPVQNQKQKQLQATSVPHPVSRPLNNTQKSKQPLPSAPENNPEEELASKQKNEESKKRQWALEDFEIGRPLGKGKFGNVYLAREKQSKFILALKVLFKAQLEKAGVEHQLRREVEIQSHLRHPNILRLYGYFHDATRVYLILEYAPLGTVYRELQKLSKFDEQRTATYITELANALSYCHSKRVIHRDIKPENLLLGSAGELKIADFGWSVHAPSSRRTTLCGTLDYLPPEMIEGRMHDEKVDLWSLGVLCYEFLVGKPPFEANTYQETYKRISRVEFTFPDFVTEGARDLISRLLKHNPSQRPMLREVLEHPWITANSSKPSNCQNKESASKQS
Protocol: as §1, §2, §3
Inhibition assay of Aurora-2 activity
After 60 minutes at room temperature incubation, reaction was stopped and biotinylated peptide captured by adding 100 µl of bead suspension.
Stratification: 100 µl of CsC12 5 M were added to each well and let stand 4 hour before radioactivity was counted in the Top-Count instrument.
IC50 determination: see above

[3] = target: PAK4 (Homo sapiens, UniProt O96013); test: PAK4 inhibition
PAK4, sequence (O96013 whole entry, species assumed): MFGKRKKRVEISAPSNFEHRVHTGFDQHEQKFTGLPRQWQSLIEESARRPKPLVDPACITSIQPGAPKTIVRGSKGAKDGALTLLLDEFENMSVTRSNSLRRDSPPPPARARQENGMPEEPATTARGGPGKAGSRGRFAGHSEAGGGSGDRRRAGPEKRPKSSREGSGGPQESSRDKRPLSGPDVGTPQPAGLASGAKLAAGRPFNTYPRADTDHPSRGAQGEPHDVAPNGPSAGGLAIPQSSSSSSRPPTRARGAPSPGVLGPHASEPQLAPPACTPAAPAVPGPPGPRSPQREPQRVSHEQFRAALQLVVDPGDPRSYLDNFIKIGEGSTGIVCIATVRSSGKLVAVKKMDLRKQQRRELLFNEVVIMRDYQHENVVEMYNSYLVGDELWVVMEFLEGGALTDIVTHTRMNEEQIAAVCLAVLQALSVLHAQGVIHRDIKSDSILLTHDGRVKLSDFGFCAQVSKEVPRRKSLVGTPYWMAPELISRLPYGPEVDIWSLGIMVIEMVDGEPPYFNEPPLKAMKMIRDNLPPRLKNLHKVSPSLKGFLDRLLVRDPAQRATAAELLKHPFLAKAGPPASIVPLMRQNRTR

IC50 [1] [nM]	IC50 [2] [nM]	IC50 [3] [nM]	Compound
	< 100		CN1CCN(c2ccc(C(=O)Nc3n[nH]c4cc(C(=O)NCc5ccccc5Cl)sc34)cc2)CC1 [Compound 106, N-(2-chlorobenzyl)-3-{[4-(4-methylpiperazin-1-yl)benzoyl]amino}-1H-thieno[3,2-c]pyrazole-5-carboxamide]
	< 100		CCc1cccc(CC)c1NC(=O)c1cc2[nH]nc(NC(=O)c3ccc(N4CCN(C)CC4)cc3)c2s1 [Compound 107, N-(2,6-diethylphenyl)-3-{[4-(4-methylpiperazin-1-yl)benzoyl]amino}-1H-thieno[3,2-c]pyrazole-5-carboxamide]
	< 100		Cc1cccc(C)c1NC(=O)c1cc2[nH]nc(NC(=O)c3ccc(N4CCN(C)CC4)cc3)c2s1 [Compound 108, N-(2,6-dimethylphenyl)-3-{[4-(4-methylpiperazin-1-yl)benzoyl]amino}-1H-thieno[3,2-c]pyrazole-5-carboxamide]
	< 100		Cc1cccc(Cl)c1NC(=O)c1cc2[nH]nc(NC(=O)c3ccc(N4CCN(C)CC4)cc3)c2s1 [Compound 109, N-(2-chloro-6-methylphenyl)-3-{[4-(4-methylpiperazin-1-yl)benzoyl]amino}-1H-thieno[3,2-c]pyrazole-5-carboxamide]
	< 100		CN1CCN(c2ccc(C(=O)Nc3n[nH]c4cc(C(=O)N(C)Cc5ccccc5)sc34)cc2)CC1 [Compound 113, N-benzyl-N-methyl-3-{[4-(4-methylpiperazin-1-yl)benzoyl]amino}-1H-thieno[3,2-c]pyrazole-5-carboxamide]
	< 100		Cc1cccc(Cl)c1CNC(=O)c1cc2[nH]nc(NC(=O)c3ccc(N4CCN(C)CC4)cc3)c2s1 [Compound 122, N-(2-chloro-6-methylbenzyl)-3-{[4-(4-methylpiperazin-1-yl)benzoyl]amino}-1H-thieno[3,2-c]pyrazole-5-carboxamide bis(trifluoroacetate)]
	< 100		O=C(Nc1n[nH]c2cc(C(=O)NC(c3ccccc3)c3ccccc3)sc12)c1ccc(N2CCOCC2)cc1 [Compound 128, N-benzhydryl-3-[(4-morpholin-4-ylbenzoyl)amino]-1H-thieno[3,2-c]pyrazole-5-carboxamide]
	< 100	< 500	COC[C@@H](NC(=O)c1cc2[nH]nc(NC(=O)c3ccc(N4CCOCC4)cc3)c2s1)c1ccccc1 [Compound 129, N-[(1S)-2-methoxy-1-phenylethyl]-3-[(4-morpholin-4-ylbenzoyl)amino]-1H-thieno[3,2-c]pyrazole-5-carboxamide]
	< 100		CC(NC(=O)c1cc2[nH]nc(NC(=O)c3ccc(N4CCOCC4)cc3)c2s1)c1ccc(Cl)cc1 (centres unmarked) [Compound 130, N-[1-(4-chlorophenyl)ethyl]-3-[(4-morpholin-4-ylbenzoyl)amino]-1H-thieno[3,2-c]pyrazole-5-carboxamide]
	< 100	< 500	CC[C@@H](NC(=O)c1cc2[nH]nc(NC(=O)c3ccc(N4CCOCC4)cc3)c2s1)c1ccccc1 [Compound 131, 3-[(4-morpholin-4-ylbenzoyl)amino]-N-[(1R)-1-phenylpropyl]-1H-thieno[3,2-c]pyrazole-5-carboxamide]
	< 100	< 500	O=C(Nc1n[nH]c2cc(C(=O)NCc3cccc(F)c3)sc12)c1ccc(N2CCOCC2)cc1 [Compound 132, N-(3-fluorobenzyl)-3-[(4-morpholin-4-ylbenzoyl)amino]-1H-thieno[3,2-c]pyrazole-5-carboxamide]
	< 100		O=C(Nc1n[nH]c2cc(C(=O)NCc3ccc(Cl)cc3)sc12)c1ccc(N2CCOCC2)cc1 [Compound 134, N-(4-chlorobenzyl)-3-[(4-morpholin-4-ylbenzoyl)amino]-1H-thieno[3,2-c]pyrazole-5-carboxamide]
< 500			Cc1c(C(=O)NCc2ccc(F)cc2)sc2c(NC(=O)c3ccc(F)cc3)n[nH]c12 [Compound 145, 3-[(4-fluorobenzoyl)amino]-N-(4-fluorobenzyl)-6-methyl-1H-thieno[3,2-c]pyrazole-5-carboxamide]
< 500	< 100		Cc1c(C(=O)NCc2ccc(F)cc2)sc2c(NC(=O)c3cccs3)n[nH]c12 [Compound 146, N-(4-fluorobenzyl)-6-methyl-3-[(thien-2-ylcarbonyl)amino]-1H-thieno[3,2-c]pyrazole-5-carboxamide]
< 500			CN1CCN(C(=O)c2cc3[nH]nc(NC(=O)c4ccc(F)cc4)c3o2)CC1 [Compound 167, 4-fluoro-N-{5-[(4-methylpiperazin-1-yl)carbonyl]-1H-furo[3,2-c]pyrazol-3-yl}benzamide]

More lines, now with the values behind:

Compound	IC50 [1] [nM]	IC50 [2] [nM]	IC50 [3] [nM]
CN1CCN(C(=O)c2cc3[nH]nc(NC(=O)c4ccc(F)cc4)c3s2)CC1 [Compound 63, 4-fluoro-N-{5-[(4-methylpiperazin-1-yl)carbonyl]-1H-thieno[3,2-c]pyrazol-3-yl}benzamide]	< 500		
O=C(Nc1n[nH]c2cc(C(=O)NCc3ccccc3)sc12)c1cc(F)cc(F)c1 [Compound 65, N-benzyl-3-[(3,5-difluorobenzoyl)amino]-1H-thieno[3,2-c]prazole-5-carboxamide]	< 500		
CCNC(=O)c1cc2[nH]nc(NC(=O)c3ccc(C(C)(C)C)cc3)c2s1 [Compound 66, 3-[(4-tert-butylbenzoyl)amino]-N-ethyl-1H-thieno[3,2-c]pyrazole-5-carboxamide]		< 100	
CCCCNC(=O)c1cc2[nH]nc(NC(=O)c3cccs3)c2s1 [Compound 79, N-butyl-3-[(thien-2-ylcarbonyl)amino]-1H-thieno[3,2-c]pyrazole-5-carboxamide]	< 500	< 100	
C[C@@H](NC(=O)c1cc2[nH]nc(NC(=O)c3ccc(CN4CCOCC4)o3)c2s1)c1ccccc1 [Compound 82, 3-{[5-(morpholin-4-ylmethyl)-2-furoyl]amino}-N-[(1R)-1-phenylethyl]-1H-thieno[3,2-c]pyrazole-5-carboxamide]		< 100	
CCCCNC(=O)c1cc2[nH]nc(NC(=O)CCCC)c2s1 [Compound 84, N-butyl-3-(pentanoylamino)-1H-thieno[3,2-c]pyrazole-5-carboxamide]	< 500		
CCCCNC(=O)c1cc2[nH]nc(NC(=O)C3CC3)c2s1 [Compound 85, N-butyl-3-[(cyclopropylcarbonyl)amino]-1H-thieno[3,2-c]pyrazole-5-carboxamide]	< 500		
CCCCNC(=O)c1cc2[nH]nc(NC(=O)C3CC3)c2s1 [Compound 86, N-butyl-3-[(cyclopropylcarbonyl)amino]-1H-thieno[3,2-c]pyrazole-5-carboxamide]	< 500		
C=CCNC(=O)c1cc2[nH]nc(NC(=O)NCc3ccccc3)c2s1 [Compound 87, N-allyl-3-{[(benzylamino)carbonyl]amino}-1H-thieno[3,2-c]pyrazole-5-carboxamide]	< 500		
CN1CCN(c2ccc(C(=O)Nc3n[nH]c4cc(C(=O)NCc5ccccc5)sc34)cc2)CC1 [Compound 91, N-benzyl-3-{[4-(4-methylpiperazin-1-yl)benzoyl]amino}-1H-thieno[3,2-c]pyrazole-5-carboxamide]			< 500
CN1CCN(c2ccc(C(=O)Nc3n[nH]c4cc(C(=O)NCc5cccc(F)c5)sc34)cc2)CC1 [Compound 94, N-(3-fluorobenzyl)-3-{[4-(4-methylpiperazin-1-yl)benzoyl]amino}-1H-thieno[3,2-c]pyrazole-5-carboxamide]		< 100	
CN1CCN(c2ccc(C(=O)Nc3n[nH]c4cc(C(=O)NCc5cccc(Cl)c5)sc34)cc2)CC1 [Compound 96, N-(3-chlorobenzyl)-3-{[4-(4-methylpiperazin-1-yl)benzoyl]amino}-1H-thieno[3,2-c]pyrazole-5-carboxamide]		< 100	< 500
CN1CCN(c2ccc(C(=O)Nc3n[nH]c4cc(C(=O)NCc5ccc(Cl)cc5)sc34)cc2)CC1 [Compound 97, N-(4-chlorobenzyl)-3-{[4-(4-methylpiperazin-1-yl)benzoyl]amino}-1H-thieno[3,2-c]pyrazole-5-carboxamide]		< 100	
CN1CCN(c2ccc(C(=O)Nc3n[nH]c4cc(C(=O)NCc5ccc(C(F)(F)F)cc5)sc34)cc2)CC1 [Compound 104, 3-{[4-(4-methylpiperazin-1-yl)benzoyl]amino}-N-[4-(trifluoromethyl)benzyl]-1H-thieno[3,2-c]pyrazole-5-carboxamide]		< 100	
